Results on five compounds are retold here after PubChem BioAssay AID1259407 (Chemical Carcinogenesis Research Information System (CCRIS), 2018).

The structures appear in SMILES notation. Active and inactive are the calls of the source. The rule behind the calls is not given here.

The subject of this series is CCRIS mutagenicity, Ames/micronucleus/aberration tests. The experiment in a line: CCRIS mutagenicity studies. Conditions: Test System: AMES SALMONELLA TYPHIMURIUM
Where [1] appears, read: Strain/Indicator: TA98, Metabolic Activation: HAMSTER, LIVER, S-9, AROCLOR 1254 (10%), Method: PREINCUBATION
[2] abbreviates: Strain/Indicator: TA98, Metabolic Activation: NONE, Method: PREINCUBATION
[3] abbreviates: Strain/Indicator: TA98, Metabolic Activation: RAT, LIVER, S-9, AROCLOR 1254 (10%), Method: PREINCUBATION
[4] abbreviates: Strain/Indicator: TA98, Metabolic Activation: RAT, LIVER, S-9, AROCLOR 1254, Method: PREINCUBATION
Where [5] appears, read: Strain/Indicator: TA100, Metabolic Activation: HAMSTER, LIVER, S-9, AROCLOR 1254 (10%), Method: PREINCUBATION
[6] abbreviates: Strain/Indicator: TA100, Metabolic Activation: NONE, Method: PREINCUBATION
The mark [7] stands for this setting: Strain/Indicator: TA100, Metabolic Activation: RAT, LIVER, S-9, AROCLOR 1254 (10%), Method: PREINCUBATION
[8] abbreviates: Strain/Indicator: TA1535, Metabolic Activation: HAMSTER, LIVER, S-9, AROCLOR 1254 (10%), Method: PREINCUBATION
Where [9] appears, read: Strain/Indicator: TA1535, Metabolic Activation: NONE, Method: PREINCUBATION
Where [10] appears, read: Strain/Indicator: TA1535, Metabolic Activation: RAT, LIVER, S-9, AROCLOR 1254 (10%), Method: PREINCUBATION
Setting [11] is: Strain/Indicator: TA1537, Metabolic Activation: HAMSTER, LIVER, S-9, AROCLOR 1254 (10%), Method: PREINCUBATION
Setting [12] is: Strain/Indicator: TA1537, Metabolic Activation: NONE, Method: PREINCUBATION
Setting [13] is: Strain/Indicator: TA1537, Metabolic Activation: RAT, LIVER, S-9, AROCLOR 1254 (10%), Method: PREINCUBATION

As to `O=C1CCc2ccccc2O1`, the mutagenic call is “inactive; negative” under setting [1]; “inactive; negative” (Strain/Indicator: TA98, Metabolic Activation: HAMSTER, LIVER, S-9, AROCLOR 1254, Method: PREINCUBATION); “inactive; negative” under setting [2]; “inactive; negative” under setting [3]; “inactive; negative” under setting [4]; “inactive; negative” under setting [5]. In addition, the mutagenic call (Strain/Indicator: TA100, Metabolic Activation: HAMSTER, LIVER, S-9, AROCLOR 1254, Method: PREINCUBATION) was “inactive; negative”; the mutagenic call under setting [6] is “inactive; negative”; the mutagenic call under setting [7] is “inactive; negative”; the mutagenic call (Strain/Indicator: TA100, Metabolic Activation: RAT, LIVER, S-9, AROCLOR 1254, Method: PREINCUBATION) was “inactive; negative”; the mutagenic call under setting [8] was “inactive; negative”; the mutagenic call (Strain/Indicator: TA1535, Metabolic Activation: HAMSTER, LIVER, S-9, AROCLOR 1254, Method: PREINCUBATION) was “inactive; negative”. Further, the mutagenic call is, setting by setting: under setting [9], “inactive; negative”; under setting [10], “inactive; negative”; (Strain/Indicator: TA1535, Metabolic Activation: RAT, LIVER, S-9, AROCLOR 1254, Method: PREINCUBATION) “inactive; negative”; under setting [11], “inactive; negative”; (Strain/Indicator: TA1537, Metabolic Activation: HAMSTER, LIVER, S-9, AROCLOR 1254, Method: PREINCUBATION) “inactive; negative”; under setting [12], “inactive; negative”. Further, the mutagenic call was “inactive; negative” under setting [13] and “inactive; negative” (Strain/Indicator: TA1537, Metabolic Activation: RAT, LIVER, S-9, AROCLOR 1254, Method: PREINCUBATION).
For the compound `Cc1ccc2ccc3c4ccccc4ccc3c2c1`, the mutagenic call (Strain/Indicator: TA100, Metabolic Activation: RAT, LIVER, MICROSOMES, 3-METHYLCHRYSENE, Method: STANDARD PLATE) is “inactive; negative”; the mutagenic call (Strain/Indicator: TA100, Metabolic Activation: RAT, LIVER, MICROSOMES, AROCLOR 1254, Method: STANDARD PLATE) was “active; positive”; the mutagenic call (Strain/Indicator: TA100, Metabolic Activation: RAT, LIVER, MICROSOMES, Method: STANDARD PLATE) was “inactive; negative”.
With `CC(=O)Nc1ccc(Oc2ccc(N=O)cc2)cc1`, the mutagenic call by setting is: (Strain/Indicator: TA98(1,8-DNP6), Metabolic Activation: NONE, Method: PREINCUBATION) “active; positive”; (Strain/Indicator: TA98(1,8-DNP6), Metabolic Activation: RAT, LIVER, S-9, AROCLOR 1254, Method: PREINCUBATION) “active; positive”; (Strain/Indicator: TA98(NR), Metabolic Activation: NONE, Method: PREINCUBATION) “active; positive”; (Strain/Indicator: TA98(NR), Metabolic Activation: RAT, LIVER, S-9, AROCLOR 1254, Method: PREINCUBATION) “active; positive”; under setting [2], “active; positive”; under setting [4], “active; positive”. Besides, the mutagenic call is, setting by setting: (Strain/Indicator: TA100(NR), Metabolic Activation: NONE, Method: PREINCUBATION) “active; positive”; under setting [6], “active; positive”.
Regarding `CC(C)CCC[C@@H](C)[C@H]1CC[C@H]2[C@@H]3CC=C4C[C@@H](OC(=O)Cc5ccc(N(CCCl)CCCl)cc5)CC[C@]4(C)[C@H]3CC[C@]12C`, the mutagenic call is “inactive; negative” under setting [1]; “inactive; negative” under setting [2]; “inactive; negative” under setting [3]; “inactive; negative” under setting [5]; “inactive; negative” under setting [6]; “inactive; negative” under setting [7]. Moreover, the mutagenic call is “inactive; negative” under setting [8]; “inactive; negative” under setting [9]; “inactive; negative” under setting [10]; “inactive; negative” under setting [11]; “inactive; negative” under setting [12]; “inactive; negative” under setting [13].
As to `O=Nn1cc(CC(O)C(=O)O)c2ccccc21` (centres undefined), where the note is “Strain/Indicator: TA98, Metabolic Activation: NONE, Method: STANDARD PLATE”, the mutagenic call is “active; positive”.
